Source: patent US20040185128A1, “Use of an extract of the root of balloon-flower for preventing and treating a degenerative brain disease or for enhancing memory” (priority 2001, published 2004)
Each block holds one compound with its values, some of them ahead of it.

Experiments:
[1] = test system: Male rats; test: Passive-avoidance test after ethanol administration; type: in vivo, rat; details: 250 mg/kg composition (Tacrine 2.5 mg/kg) daily for a week; 3 g/kg 50% ethanol oral before learning; tested 24 hours later, up to 300 seconds
Description: Male rats, each weighing about 18 to 20 g, were raised under a condition of temperature 22±1° C. and 12L/12D photoperiod for 7 days while being allowed free access to food and water and used in the Test after 3 days of acclimatization.
The passive avoidance test composed of consecutively learning and testing procedures was conducted over a period of 2 days (interval: 24hours) using PACS-30 shuttle box system (Columbus Instrument Co.).
30 minutes after the 7th (last) administeration, a 3 g/kg dose of 50% ethanol was orally administered to respective rats. After 1 hour, the rats were placed in the bright area of a room which was divided into a dark and bright areas by a guillotin door and allowed to stay there for 30 seconds (the searching time). The guillotin door was opened to let the rats move to the dark side of the room. […] The time the rats took to move from the bright side to the dark side was measured automatically. […]
24 hours after the learning procedure, test procedure was conducted as follows. After 30 seconds of the searching time and opening of the gillontin door, the time the test animal took to move from the bright side to the dark side (latency time) was measured up to the extent 300 seconds. […]

[2] = target: T1, recombinant human muscarinic acetylcholine receptor subtype 1 (mAChR-M1) (Homo sapiens, UniProt P11229); test: Inhibition of [3H]N-methyl-scopolamine binding to muscarinic acetylcholine receptor subtype 1; details: control compound, read-out: concentration inhibiting the ligand binding to receptor by 50%
T1 construct: purchased BSR BSR-MM1H; host or cells: Chinese Hamster Ovary (CHO) cells
T1 sequence (P11229 1-460): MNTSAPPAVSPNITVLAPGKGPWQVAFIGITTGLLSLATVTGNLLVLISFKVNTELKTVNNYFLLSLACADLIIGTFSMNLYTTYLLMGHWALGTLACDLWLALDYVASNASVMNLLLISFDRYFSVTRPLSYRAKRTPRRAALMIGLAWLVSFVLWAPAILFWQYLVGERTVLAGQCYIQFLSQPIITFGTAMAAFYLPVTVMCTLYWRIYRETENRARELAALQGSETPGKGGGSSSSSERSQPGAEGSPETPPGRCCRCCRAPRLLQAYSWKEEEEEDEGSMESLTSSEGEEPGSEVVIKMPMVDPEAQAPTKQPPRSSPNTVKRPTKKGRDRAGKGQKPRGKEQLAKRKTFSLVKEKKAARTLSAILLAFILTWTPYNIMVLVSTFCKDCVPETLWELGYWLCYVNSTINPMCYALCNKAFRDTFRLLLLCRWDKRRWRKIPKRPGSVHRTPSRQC
Description: The ability of each of the compositions obtained in Example 1 in enhancing acetylcholine activity was measured by examining to what extent the binding of a ligand to muscarin acetylcholine receptor subtype 1(M1) is suppressed. That is, an excess amount of a radioactive isotope-labeled ligand was allowed to react with the receptor, unbound ligand was removed by filtering using a glass fiber filter and the amount of the isotope-labeled ligand on the filter was measured to quantify the amount of ligand bound to receptor, and thus, the effects of the compositions of the present invention was determined.
As the receptor, recombinant human muscarinic acetylcholine receptor subtype 1(mAChR-M1, BSR-MM1H, BSR) expressed in Chinese Hamster Ovary (CHO) cells was used. 250 μl of a deep-frozen (−70° C.) receptor fraction was suspended in 10 ml of phosphate buffer saline (PBS) (pH 7.4) and the concentration of the protein was adjusted to 130 μg/ml.
50 μl of 0.5 nM [^3H] N-methyl-scopolamine (24,605 DPM) (NEN, NET-636) and 10 μl of a test composition were added to each well of 96-well microtiter plate (Inotech harvester). […] The filtermat was dried in a microwave oven and the amount of the ligand bound to the receptor was evaluated by determining the radioactivity with the liquid scintillation counter (MicroBeta 1450 Plus; Wallac, Finland). […]

[3] = target: T2, NMDA-receptor (glycine site) (Rattus norvegicus, UniProt P35439); test: Inhibition of [3H]MDL 105,519 binding to the glycine site of NMDA receptor (rat forebrain fraction); details: control compound, read-out: concentration inhibiting the ligand binding to receptor by 50%
T2 construct: Preparation of NMDA Receptor Fraction from Rat's Cerebrum; from tissue; host or cells: forebrain membrane fraction of male Sprague-Dawley rat
Description: The fact that the compositions of the present invention suppresses neuron damage was confirmed as follows by examining the activity thereof in suppressing the binding formation of NMDA-receptor (glycine site) bound. NMDA (N-Methyl-D-Aspartate) which acts as an excitatory neurotransmitter induces neuron damage.
That is, an excess amount of a radioactive isotope-labeled ligand was allowed to react with the receptor, unbound ligand was removed by filtering using a glass fiber filter and the amount of the isotope-labeled ligand on the filter was measured to quantify the amount of ligand bound to receptor, and thus, the effects of the compositions of the present invention was determined.
Forebrain taken from a male Spargue-Dawley rat was sliced and a 10-fold volume of cold sucrose solution ([…]) was added thereto. The resulting mixture was homogenized (5 strokes) using a Teflon-glass homogenizer, and then centrifuged at 1000 g (10 min., 4° C.). The supernatant was centrifuged at 20000 g (20 min., 4° C.) to obtain a precipitate, a 20-fold volume of cold distilled water was added thereto and homogenized using Brinkman Polytron Homogenizer. […] The protein content was measured according to Bradford method and the protein concentration of suspension was adjusted to 1 mg/ml, divided into several fractions and kept at −70° C. […]

Structure (SMILES): Nc1c2c(nc3ccccc13)CCCC2 [Comparative group, 9-amino-1,2,3,4-tetrahydroacrine]
Latency Time [1]: 31 s

IC50 [2]: 24 nM
Structure (SMILES): C[N+]1(C)CCC(OC(=O)C(c2ccccc2)c2ccccc2)CC1 [4-DAMP methiodide]

Structure (SMILES): O=C(O)c1cc(=O)c2c(Cl)cc(Cl)cc2[nH]1 [5,7-DCKA, 5,7-Dichlorokynurenic acid]
IC50 [3]: 1000 nM
